Measured values: patent US7776872B2, “Diaminopyrimidines as P2X3 and P2X2/3 modulators” (Roche Palo Alto LLC, priority 2005, dated 2010)

Experiments:
[1] = molecular target: T1, human P2X2/3 receptor (Homo sapiens, UniProt P56373+Q9UBL9); assay: P2X2/3 FLIPR (Fluorometric Imaging Plate Reader) assay, CHO-K1 cells; type: cell-based; settings: CHO-K1 cells transfected with human P2X2/3; agonist α,β-meATP 5 μM; Fluo-3 calcium fluorescence
T1 construct: expressed in transfected cells; host or cells: CHO-K1
T1 sequence (Q9UBL9 1-471): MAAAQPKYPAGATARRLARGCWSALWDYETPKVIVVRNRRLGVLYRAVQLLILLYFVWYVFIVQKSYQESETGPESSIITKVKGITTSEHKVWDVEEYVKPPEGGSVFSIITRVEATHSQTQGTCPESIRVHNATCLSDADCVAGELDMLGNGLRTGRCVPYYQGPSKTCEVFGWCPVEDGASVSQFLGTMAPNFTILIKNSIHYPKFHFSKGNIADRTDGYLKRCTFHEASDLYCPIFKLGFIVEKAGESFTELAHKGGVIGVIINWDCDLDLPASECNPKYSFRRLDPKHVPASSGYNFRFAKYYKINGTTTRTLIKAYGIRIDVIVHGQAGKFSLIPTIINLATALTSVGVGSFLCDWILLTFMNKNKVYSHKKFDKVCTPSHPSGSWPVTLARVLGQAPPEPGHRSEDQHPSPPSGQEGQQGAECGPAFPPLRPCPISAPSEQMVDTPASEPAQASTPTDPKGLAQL
T1 sequence (P56373 1-397): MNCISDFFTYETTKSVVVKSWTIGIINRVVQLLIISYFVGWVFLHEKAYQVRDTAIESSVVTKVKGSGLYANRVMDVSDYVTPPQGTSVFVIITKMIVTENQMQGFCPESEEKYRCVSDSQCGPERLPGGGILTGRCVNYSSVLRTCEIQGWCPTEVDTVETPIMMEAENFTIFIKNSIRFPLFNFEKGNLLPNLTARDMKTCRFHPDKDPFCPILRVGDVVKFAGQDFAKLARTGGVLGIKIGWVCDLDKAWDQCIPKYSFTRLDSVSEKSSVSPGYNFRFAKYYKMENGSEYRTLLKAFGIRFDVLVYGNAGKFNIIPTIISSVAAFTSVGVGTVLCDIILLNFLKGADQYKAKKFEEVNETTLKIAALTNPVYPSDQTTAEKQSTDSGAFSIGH
Procedure: (§1) CHO-K1 cells were transfected with cloned rat P2X3 or human P2X2/3 receptor subunits and passaged in flasks. 18-24 hours before the FLIPR experiment, cells were released from their flasks, centrifuged, and resuspended in nutrient medium at 2.5×10^5 cells/ml. The cells were aliquoted into black-walled 96-well plates at a density of 50,000 cells/well and incubated overnight in 5% CO2 at 37° C. On the day of the experiment, cells were washed in FLIPR buffer (calcium- and magnesium-free Hank's balanced salt solution, 10 mM HEPES, 2 mM CaCl2, 2.5 mM probenecid; FB). Each well received 100 μl FB and 100 μl of the fluorescent dye Fluo-3 AM [2 μM final conc.]. […]
(§2) Test compounds (dissolved in DMSO at 10 mM and serially diluted with FB) or vehicle were added to each well (25 μl of a 4X solution) and allowed to equilibrate for 20 minutes at room temperature. The plates were then placed in the FLIPR and a baseline fluorescence measurement (excitation at 488 nm and emission at 510-570 nm) was obtained for 10 seconds before a 100 µl/well agonist or vehicle addition. […] Fluorescence was measured for an additional 2 minutes at 1 second intervals after agonist addition. A final addition of ionomycin (5 μM, final concentration) was made to each well of the FLIPR test plate to establish cell viability and maximum fluorescence of dye-bound cytosolic calcium. […]

[2] = molecular target: T2, rat P2X3 receptor (Rattus norvegicus, UniProt P49654); assay: P2X3 FLIPR (Fluorometric Imaging Plate Reader) assay, CHO-K1 cells; type: cell-based; settings: CHO-K1 cells transfected with rat P2X3; agonist α,β-meATP 1 μM; Fluo-3 calcium fluorescence
T2 construct: expressed in transfected cells; host or cells: CHO-K1
T2 sequence (P49654 1-397): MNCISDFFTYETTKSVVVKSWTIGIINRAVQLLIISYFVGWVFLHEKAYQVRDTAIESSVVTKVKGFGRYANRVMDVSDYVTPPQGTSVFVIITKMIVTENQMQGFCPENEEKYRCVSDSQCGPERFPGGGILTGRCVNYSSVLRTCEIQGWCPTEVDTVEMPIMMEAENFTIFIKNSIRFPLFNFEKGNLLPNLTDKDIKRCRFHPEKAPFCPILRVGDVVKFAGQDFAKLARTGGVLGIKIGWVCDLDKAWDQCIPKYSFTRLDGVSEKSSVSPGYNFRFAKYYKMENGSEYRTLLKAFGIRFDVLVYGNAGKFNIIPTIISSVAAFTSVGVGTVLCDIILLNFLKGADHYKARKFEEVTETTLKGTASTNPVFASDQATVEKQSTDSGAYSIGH
Procedure: as §1, §2

SMILES	pIC50 for the P2X2/3 receptor [1]	pIC50 for the P2X3 receptor [2]	melting point [°C]
CC(C)c1cc2ncccc2cc1Oc1cnc(N)nc1N [5-(7-Isopropyl-quinolin-6-yloxy)-pyrimidine-2,4-diamine]	approximately 7.30	approximately 7.42	206.9 to 208.2
Cc1cccc2cc(C(C)C)c(Oc3cnc(N)nc3N)cc12 [Compound 1, 5(3-Isopropyl-8-methyl-naphthalen-2-yloxy)-pyrimidine-2,4-diamine]			148
CC(C)c1cc2ncccc2cc1Oc1cnc(NC(CO)CO)nc1N [Compound 11, 2-[4-Amino-5-(7-isopropyl-quinolin-6-yloxy)-pyrimidin-2-ylamino]-propane-1,3-diol]			171.9 to 174.4

Now from value to compound:

pIC50 for the P2X2/3 receptor [1]	pIC50 for the P2X3 receptor [2]	melting point [°C]	SMILES
		170 to 172	COc1ccc2cc(Oc3cnc(N)nc3N)c(C(C)C)cc2c1 [Compound 4, 5-(3-Isopropyl-6-methoxy-naphthalen-2-yloxy)-pyrimidine-2,4-diamine]
		276.3 to 278	CC(C)c1cc2cccnc2cc1Oc1cnc(N)nc1N [Compound 9, 5-(6-lsopropyl-quinolin-7-yloxy)-pyrimidine-2,4-diamine]
